Here are results for 13 compounds from patent US20070043093A1, “Glucagon-like peptide-1 receptor agonists, the preparation and the use of the same” (priority 2003, published 2007).

Series [1] concerns the target T1, GLP-1R (Rattus norvegicus, UniProt P32301).
T1 construct: stably transfected with the expression vector of GLP-1R gene
T1 sequence (P32301 22-463): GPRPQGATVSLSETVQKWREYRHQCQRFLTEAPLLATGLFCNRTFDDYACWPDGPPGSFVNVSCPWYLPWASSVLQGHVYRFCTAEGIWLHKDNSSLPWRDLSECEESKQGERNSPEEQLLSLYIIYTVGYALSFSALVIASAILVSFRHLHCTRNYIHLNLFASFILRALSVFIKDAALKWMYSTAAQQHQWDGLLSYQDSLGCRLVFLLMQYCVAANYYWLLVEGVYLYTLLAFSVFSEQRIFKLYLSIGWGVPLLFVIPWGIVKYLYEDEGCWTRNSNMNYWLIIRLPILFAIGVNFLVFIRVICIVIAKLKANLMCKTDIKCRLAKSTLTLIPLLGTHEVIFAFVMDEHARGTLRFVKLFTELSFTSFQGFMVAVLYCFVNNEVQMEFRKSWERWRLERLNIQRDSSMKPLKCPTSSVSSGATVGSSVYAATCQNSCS
The series can be described thus: Expression of the luciferase report gene in HEK 293/GLP1R+Luc cells. In kind it is cell-based, human. As to conditions: for EC50: luciferase report gene, HEK 293/GLP1R+Luc cells, 6 hours. An excerpt: Upon that GLP-1R binds to GLP-1 or agonists, its Gasubunit is activated to stimulate the adenylate cyclase, which makes the increase in the concentration of intracellular cAMP. Since the promoter region of the proinsulin gene has the cAMP response element, upon binding of cAMP to this response element, the transcription of the proinsulin gene is activated, so as to increase the sensitivity of -- islet cells to glucose, and improve the expression and secretion of insulin (Diabetes, 2000, vol.49:1156-1164). The screening model employs the human embryonal nephric cell strain which is stably transfected with the expression vector of GLP-1R gene and the expression vector of luciferase report gene under the regulation of cAMP response element, to detect its response to the candidate compound (Cell Biology, 1992, Vol.89: 8641-8645; Proc. Natl. Acad. Sci. U.S.A. 1987, Vol.84: 3434-3438). When screening the candidate compounds, the compound which may induce the luciferase report gene to express have the activity of activating GLP-1.
Cell strain: HEK 293/GLP1R+Luc strain which stably express GLP-1R and luciferase (National New Medicaments Screening Center)
HEK 293/GLP1R+Luc cell in 20000 cells/100 μl/well are inoculated into 96-well plate, are cultured at 37[…] overnight with DMEM culture medium containing 10% of fetal calf serum and 500 μg/mL of G418. The candidate compounds wang516-2, wang502, and wang504 are respectively diluted to 2 mM, 1 mM, 0.3 mM, 0.1 mM, 0.03 mM, […], and 0.003 mM, and the other candidate compounds are diluted gradually from 30 mM for 8 times by a ratio of 1:3 to get a concentration gradient (i.e., 30 mM, 10 mM, 3 mM, 1 mM, 0.3 mM, 0.1 mM, 0.03 mM, and 0.01 mM), following by being added into the above 96-well plate at 1 μl/well. Then, the cells are cultured at 37[…] in 5% of CO2for 6 hours. The activity of luciferase is detected according to the specification of Steady-glo™ luciferase analysis system kit, and counting is performed with Victor 2 counting machine. The positive control adopts 30 nM of standard GLP-1.

The target in series [2] is T1, GLP-1R. The series can be described thus: Determination of the concentration of intracellular cAMP. In kind it is cell-based, human. An excerpt: Since the determination of the concentration of intracellular cAMP indirectly by detecting the expression of the report gene is an indirect process, the functional re-screen is directly performed with the cAMP-detecting kit in order to make sure that the compound can surely increase the concentration of intracellular cAMP.
HEK 293/GLP1R+Luc strain which stably express GLP-1R and luciferase (National new medicaments screening center)
HEK 293 cells are inoculated into 96-well plate in 20000 cells/100 μl/well, are cultured at 37[…] overnight. The compound 2f is diluted to 1.00E-03M, 1.00E-04M, 1.00E-05M, 1.00E-06M and 1.00E-07M with dimethyl sulphoxide, following by being inoculated into the above 96-well plate in […] and being cultured at 37 °C with 5% of CO2 for 1 hour. The concentration of intracellular cAMP is detected according to the specification of cAMP-Screen Direct TM system kit.

Series [3] has as its target T1, GLP-1R. The series can be described thus: Ligand-binding activity, competition with 125I-labelled GLP-1 on HEK 293/GLP1R+Luc cells. Further details: species or system human. The following applies: for EC50: competition with 125I-labelled GLP-1 (40 pM), 25 °C, 4 hours; for affinity to GLP-1R (in words): receptor-binding experiment, testing concentration range 0.1 nM to 100,000 nM. On the procedure:
In order to determine the binding activity of the compound to the ligand, the cells which highly express GLP-1R are prepared, GLP-1 labelled with ^125I is used as the ligand, while adding into the candidate compound. When the candidate compound binds the ^125I-labelled GLP-1 competitively, the isotope labels on the cell membrane reduce. Accordingly, the affinity of the candidate compound to the ligand can be evaluated (J Mol Endocrinol. 2000 Vol.25:321-35; J Biomol Screen, 2000 Vol. 5:377-84).
20 mM of tris-HCl (pH 7.4) (Shanghai Shenggong biological engineering technology LTD), 100 mM of NaCl (Shanghai Chemical agents Cooperation), 15 mM of NaF (Shanghai Chemical agents Cooperation), 2 mM of deoxypyridoxine (Sigma Cooperation), 0.2 mM of phenylmethylsulfonyl fluoride (Sigma Cooperation), aprotinin (Shanghai Chemical agents Cooperation) (1 μg/ml), and leupeptin (Shanghai Chemical agents Cooperation) (1 μg/ml).
The candidate compound is diluted with dimethyl sulphoxide at the concentration gradient of 0.1 nM, 1 nM, 10 nM, 100 nM, 1000 nM, 10,000 nM, and 100,000 nM.
10^5 HEK 293/GLP1R+Luc cells in the logarithmic growth phase are incubated together with the ^125I-labelled GLP-1 positive peptide (the final concentration of 40 pM) in 200 μl of the testing buffer solution at 25 °C for 4 hours, while adding into the non-labeled positive peptide or the candidate compound. The cells are collected with the cell collector, following by washing three times with the washing solution. The scintillation liquid is added into them, and each well is counted with Microbata counter.

Each structure is given as a SMILES string.

At GLP-1R [1], `CCOc1cc(/C=C2/N=C(c3ccc(NC(C)=O)cc3)OC2=O)ccc1OC(=O)c1cccs1` [2f] had an EC50 of 13 µM. Also, on GLP-1R [2] (30 μM and 100 μM), the “effect of high concentration on cells (cAMP decreasing trend)” value is reported as “cellulotoxic effect”. The “concentration of cAMP with increase of compound concentration” value at GLP-1R [2] (293/GLP-1R cells, 1 hour, FIG. 2) is “exponential increase”. Further, at GLP-1R [3], the EC50 was 31 µM and the “affinity to GLP-1R (in words)” value is “better affinity”.

`COc1cc(C=C2N=C(c3ccccc3)OC2=O)ccc1OC(=O)c1cccs1` [wang405]: the EC50 on GLP-1R [3] was > 100 µM.

With `COc1cc(/C=C2/N=C(c3ccc(N)cc3)OC2=O)ccc1OC(=O)c1cccs1` [wang420], on GLP-1R [3], the EC50 was > 100 µM.

Turning to `COc1cc(C=C2N=C(c3ccc([N+](=O)[O-])cc3)OC2=O)ccc1OC(=O)c1cccs1` [wang450], the EC50 on GLP-1R [3] is > 100 µM.

As for `COc1cc(/C=C2/N=C(c3ccc(NC(C)=O)cc3)OC2=O)ccc1OC(=O)c1cccs1` [wang462], the EC50 on GLP-1R [1] is 11.6 µM; on GLP-1R [3] it was > 100 µM.

`COc1cc(/C=C2/N=C(c3ccc(NC(=O)C4CC4)cc3)OC2=O)ccc1OC(=O)c1cccs1` [wang488] registered an EC50 at GLP-1R [1] of 6.73 µM.

In the case of `COc1cc(/C=C2/N=C(c3ccc(NC(=O)C4CCC4)cc3)OC2=O)ccc1OC(=O)c1cccs1` [wang502], the response on GLP-1R [1] was half-maximal at 3.31 µM (EC50).

For `COc1cc(/C=C2/N=C(c3ccc(NC(=O)C(C)(C)C)cc3)OC2=O)ccc1OC(=O)c1cccs1` [wang504], at GLP-1R [1], the EC50 came to 4.87 µM.

The compound `COc1cc(C=C2N=C(c3ccc(NC(=O)C4CCCC4)cc3)OC2=O)ccc1OC(=O)c1cccs1` [wang516] gave an EC50 at GLP-1R [1] of 6.85 µM. Moreover, at GLP-1R [3], the EC50 lay within 40 to 80 µM and the “affinity to GLP-1R (in words)” value is on record as “little week”.

Turning to `COc1cc(/C=C2/N=C(c3ccc(NC(=O)OC(C)(C)C)cc3)OC2=O)ccc1OC(=O)c1cccs1` [wang520], the “relative activity of luciferase” value at GLP-1R [1] (final concentration of 30 μM, luciferase activity induced by 30 nM standard GLP-1 regarded as 100%, FIG. 1) is listed as 94%. Also, the EC50 on GLP-1R [1] was 4.6 µM. Besides, at GLP-1R [3], the EC50 lay within 60 to 100 µM and the “affinity to GLP-1R (in words)” value is reported as “little week”.

As to `COc1cc(/C=C2/N=C(c3ccc(NC(=O)c4ccccc4)cc3)OC2=O)ccc1OC(=O)c1cccs1` [wang524], the EC50 at GLP-1R [1] was 46.5 µM; on GLP-1R [3], > 100 µM.

`COc1cc(/C=C2/N=C(c3ccc(NC(=O)C(O)c4ccccc4)cc3)OC2=O)ccc1OC(=O)c1cccs1` (stereo not shown) [wang554]: on GLP-1R [1], the EC50 turned out to be 5.24 µM.

With `COc1cc(C=C2N=C(c3ccc(NC(=O)Nc4ccc(C5=NC(=Cc6ccc(OC(=O)c7cccs7)c(OC)c6)C(=O)O5)cc4)cc3)OC2=O)ccc1OC(=O)c1cccs1` [wang866], the values for the EC50 on GLP-1R [1] and at GLP-1R [3] were 54.4 µM and > 100 µM, respectively.

Broadly, the EC50 is the concentration giving half of the maximal effect. Read a low EC50 as higher potency in that assay.
